Laboratory results: PMC4388847, “Machine Learning Assisted Design of Highly Active Peptides for Drug Discovery” (PLoS Computational Biology, 2015)
Where two headings read alike, the source gives them in different places. Peptide text beside a SMILES is read from it.

Experiments:
[1] = test system: Escherichia coli K12 MG1655; assay type: cell-based
Description: (§1) To further validate the approach, a number of antimicrobial peptides identified during the in silico validation were synthesized. Their antimicrobial activity against Escherichia coli and Staphylococcus aureus were measured in a growth inhibitory assay. Details on the synthesis and assay are given in the supplementary material (see S1 Text). The peptides were obtained using h CAMP, the same predictor used during the previous validation. […]
(§2) Escherichia coli K12 MG1655 and Staphylococcus aureus 68 (HER1049) were obtained from the F´elix d’H´erelle Reference Center for Bacterial Viruses of Universit´e Laval (http://www.phage.ulaval.ca). Both strains were grown in Trypticase soy broth with agitation at 37◦C. The minimal inhibitory concentration assay was performed as described in [2] and broth microdilution protocol performed in 96-well plates.
(§3) The bacterial strains were grown overnight at 37◦C with aeration and diluted to a ﬁnal concentration of 5× 10^5 cfu/ml in the assay. The peptides were diluted in sterile water and were tested at the following concentrations: 0, 1, 2, 4, 8, 16 and 32µg/ml. The optical density (600nm) was followed every 30 minutes for 24 hours with a Synergy 2 plate reader (BioTek Instruments, Inc.). […]
(§4) 2.Wiegand I, Hilpert K, Hancock RE (2008) Agar and broth dilution methods to determine the minimal inhibitory concentration (mic) of antimicrobial substances. Nature protocols 3: 163–175.

[2] = test system: Staphylococcus aureus 68 (HER1049); assay type: cell-based
Description: as §1, §2, §3, §4

[3] = stated in words as the cause of the weak activity
Description: We used the proposed approach with the predictor h CAMP to generate a list of K = 1,000 peptide candidates with the highest predicted activity. From this list, we greedily selected three peptides such that they all differed by at least 4 amino acids from each others. This was done to maximize the chemical diversity among them. We then tested these peptides (Peptides #2, #3, #4) in a growth inhibitory assay. […] In a second series, we ensured that a filter for water solubility was employed.

[4] = test system: 24 bacteria such as Escherichia coli, Bacteroïdes fragilis, and Staphylococcus aureus; conditions: average potency over 24 bacteria; CAMPs training set value; cited from earlier work
Text: We observe a smooth power law with only a few peptides having outstanding biological activity, as expected.

bradykinin potentiation = conditions: BPPs training set value; cited from earlier work
Text: On the BPPs dataset, the proposed approach predicted that the pentapeptide IEWAK should have an activity of 2.195, slightly less than the best peptide of the training set (VEWAK, 2.73, predicted as 2.192). However, the predicted activity of IEWAK is much better than the average peptide activity of the dataset, which is 0.71. One may ask why IEWAK has a lower predicted biological activity than VEWAK, which was part of the training data. It is common for machine learning algorithms to sacrifice accuracy on the training data to prevent overfitting. Despite this small discrepancy, the model is ver ...

[5] = E. coli K12 MG1655, broth microdilution in 96-well plates, 5×10^5 cfu/ml, peptides in sterile water tested at 0, 1, 2, 4, 8, 16 and 32 µg/ml, OD 600 nm every 30 minutes for 24 hours, 37 °C
[6] = S. aureus 68 (HER1049), broth microdilution in 96-well plates, 5×10^5 cfu/ml, peptides in sterile water tested at 0, 1, 2, 4, 8, 16 and 32 µg/ml, OD 600 nm every 30 minutes for 24 hours, 37 °C

Row | Compound | MIC (μg/ml) >E. coli ([1]; K12, 24 h) [µg/mL] | MIC (μg/ml) S. aureus ([2]; 68 (HER1049, 24 h)) [µg/mL] | MIC (μg/ml) >E. coli [1, 5] [µg/mL] | MIC (μg/ml) S. aureus [2, 6] [µg/mL] | further results
1 | CC[C@H](C)[C@H](NC(=O)[C@H](CCCNC(=N)N)NC(=O)[C@H](CCCNC(=N)N)NC(=O)[C@H](CC(C)C)NC(=O)[C@H](CCCCN)NC(=O)[C@H](CCCCN)NC(=O)[C@H](Cc1c[nH]c2ccccc12)NC(=O)[C@H](CCCCN)NC(=O)[C@H](CCCCN)NC(=O)[C@H](Cc1c[nH]c2ccccc12)NC(=O)[C@@H](N)Cc1ccc(O)cc1)C(=O)N[C@@H](Cc1ccccc1)C(=O)N[C@@H](CCSC)C(=O)N[C@@H](CC(C)C)C(=O)N[C@H](C(N)=O)C(C)C [Peptide 1] (H-YWKKWKKLRRIFMLV-NH2; N-terminus assumed) | 2 | 8 |  |  | 
2 | CC[C@H](C)[C@H](NC(=O)[C@H](CCCNC(=N)N)NC(=O)[C@H](CCCNC(=N)N)NC(=O)[C@H](CC(C)C)NC(=O)[C@H](CCCCN)NC(=O)[C@H](CCCCN)NC(=O)[C@H](Cc1c[nH]c2ccccc12)NC(=O)[C@H](CCCNC(=N)N)NC(=O)[C@H](CCCCN)NC(=O)[C@H](Cc1c[nH]c2ccccc12)NC(=O)[C@@H](N)Cc1c[nH]c2ccccc12)C(=O)N[C@@H](Cc1ccccc1)C(=O)N[C@@H](CC(C)C)C(=O)N[C@@H](CCSC)C(=O)N[C@@H](CC(C)C)C(N)=O [Peptide 2] (H-WWKRWKKLRRIFLML-NH2; N-terminus assumed) | 4 | 4 |  |  | 
3 | CC[C@H](C)[C@H](NC(=O)[C@H](CCCNC(=N)N)NC(=O)[C@H](CCCCN)NC(=O)[C@H](Cc1c[nH]c2ccccc12)NC(=O)[C@H](CCCNC(=N)N)NC(=O)[C@H](CCCCN)NC(=O)[C@H](Cc1c[nH]c2ccccc12)NC(=O)[C@@H](N)Cc1c[nH]c2ccccc12)C(=O)N[C@@H](CCCNC(=N)N)C(=O)N[C@@H](CCCNC(=N)N)C(=O)N[C@H](C(=O)N[C@@H](Cc1ccccc1)C(=O)N[C@@H](CCSC)C(=O)N[C@@H](CCSC)C(=O)N[C@H](C(N)=O)C(C)C)[C@@H](C)CC [Peptide 3] (H-WWKRWKRIRRIFMMV-NH2; N-terminus assumed) | 4 | 8 |  |  | 
4 | CC(C)C[C@H](NC(=O)[C@H](CCCNC(=N)N)NC(=O)[C@H](CCCCN)NC(=O)[C@H](Cc1c[nH]c2ccccc12)NC(=O)[C@H](Cc1c[nH]c2ccccc12)NC(=O)[C@H](CCCCN)NC(=O)[C@H](Cc1c[nH]c2ccccc12)NC(=O)[C@@H](N)Cc1c[nH]c2ccccc12)C(=O)N[C@@H](CCCNC(=N)N)C(=O)N[C@@H](CCCNC(=N)N)C(=O)N[C@@H](CC(C)C)C(=O)N[C@@H](Cc1ccccc1)C(=O)N[C@@H](CC(C)C)C(=O)N[C@@H](CC(C)C)C(=O)N[C@H](C(N)=O)C(C)C [Peptide 4] (H-WWKWWKRLRRLFLLV-NH2; N-terminus assumed) | 16 | 16 |  |  | water solubility [3]: poor
5 | CC[C@H](C)[C@H](NC(=O)CNC(=O)[C@H](CCCCN)NC(=O)[C@H](Cc1ccccc1)NC(=O)[C@H](CC(C)C)NC(=O)[C@H](CCCCN)NC(=O)[C@H](Cc1c[nH]c2ccccc12)NC(=O)[C@@H](N)CCCCN)C(=O)N[C@@H](CCCNC(=N)N)C(=O)N[C@@H](C)C(=O)N[C@H](C(=O)N[C@@H](CC(C)C)C(=O)N[C@@H](CCCCN)C(=O)N[C@H](C(=O)N[C@@H](CC(C)C)C(N)=O)C(C)C)C(C)C [Peptide 5, reference compound] (H-KWKLFKGIRAVLKVL-NH2; N-terminus assumed) |  |  | 4 | 8 | 
6 | CC[C@H](C)[C@H](NC(=O)[C@H](CC(C)C)NC(=O)[C@H](CCCNC(=N)N)NC(=O)[C@H](Cc1c[nH]c2ccccc12)NC(=O)CN)C(=O)N[C@@H](CCCCN)C(=O)N[C@@H](CCCCN)C(=O)N[C@H](C(=O)N[C@@H](CC(C)C)C(=O)N[C@@H](CCCNC(=N)N)C(=O)N[C@H](C(=O)N[C@@H](Cc1ccccc1)C(=O)N[C@@H](CCCCN)C(=O)NCC(=O)N[C@@H](CC(C)C)C(N)=O)C(C)C)[C@@H](C)CC [Peptide 6, reference compound] (H-GWRLIKKILRVFKGL-NH2; N-terminus assumed) |  |  | 4 | 4 | antibacterial activity (logarithm of bactericidal potency) [4]: 0.824
7 | CC[C@H](C)[C@H](NC(=O)CNC(=O)[C@H](CC(C)C)NC(=O)[C@H](Cc1ccccc1)NC(=O)[C@H](CC(C)C)NC(=O)[C@H](CCCCN)NC(=O)[C@H](Cc1c[nH]c2ccccc12)NC(=O)[C@@H](N)CCCCN)C(=O)N[C@@H](CC(C)C)C(=O)N[C@@H](C)C(=O)N[C@H](C(=O)N[C@@H](CC(C)C)C(=O)N[C@@H](CCCCN)C(=O)N[C@H](C(=O)N[C@@H](CC(C)C)C(N)=O)C(C)C)C(C)C [Peptide 7, reference compound] (H-KWKLFLGILAVLKVL-NH2; N-terminus assumed) |  |  | > 32 | > 32 | 
8 | VEWAK |  |  |  |  | bioactivity (logarithm of the relative activity index compared to the peptide VESSK) (bradykinin potentiation): 2.73
